The values that follow come from the NIST ThermoML archive (doi:10.1021/acs.jced.6b00497).

± gives the expanded uncertainty stated by the source.

The conditions of this series: Crystal; DTA.

`O=C(O)c1cc(N=Nc2ccc(S(=O)(=O)Nc3ccccn3)cc2)ccc1O` [Sulfasalazine]: the Normal melting temperature worked out at 220.00 ± 1 °C.
